Experimental data reported in US20080221094A1, “Metalloprotease inhibitors containing a squaramide moiety” (priority 2007, published 2008).
pIC50: −log10 of the molar value.

Target: T1, MMP-13 (Homo sapiens, UniProt P45452)
T1 construct: 10 μL of a 50 nM stock solution of catalytic domain of MMP-13 enzyme; purchased Invitek (Berlin) 30100812
Assay: Assay for Determining MMP-13 Inhibition
Type: biochemical
Conditions: catalytic domain of MMP-13, fluorescent substrate
Method: The typical assay for MMP-13 activity is carried out in assay buffer comprised of 50 mM Tris, pH 7.5, 150 mM NaCl, 5 mM CaCl2 and 0.05% Brij-35. Different concentrations of tested compounds are prepared in assay buffer in 50 μL aliquots. 10 μL of a 50 nM stock solution of catalytic domain of MMP-13 enzyme (produced by Alantos or commercially available from Invitek (Berlin), Cat.# 30100812) is added to the compound solution. The mixture of enzyme and compound in assay buffer is thoroughly mixed and incubated for 10 min at room temperature. Upon the completion of incubation, the assay is started by addition of 40 μL of a 12.5 μM stock solution of MMP-13 fluorescent substrate (Calbiochem, Cat. No. 444235). The time-dependent increase in fluorescence is measured at the 320 nm excitation and 390 nm emission by automatic plate multireader. The IC50 values are calculated from the initial reaction rates.

Row | pIC50 | SMILES
1 | > 6.30 | Nc1c(N2CCc3ccc(CNC(=O)c4cnc5ccccc5n4)cc3C2)c(=O)c1=O [2/50]
2 | > 6.30 | Nc1c(N2CCc3ccc(CNC(=O)c4nc(O)nc5ccccc45)cc3C2)c(=O)c1=O [Example 1]
